Experimental findings from BindingDB's records for doi:10.1111/cbdd.12807 (Zhejiang Hospital, 2016) are described below.

Experiment [1] deals with 72 kDa type IV collagenase (Rat, UniProt P33436). Description: enzyme-based fluorimetric assay. The conditions noted are these: pH 7.5; 25 °C. The text has this: (§1) For this assay, the reagents used as follows. The substrate corresponds to Mca-Pro-Leu-Gly-Leu-Dpa-Ala-Arg 25 mm in assay buffer. This low-fluorescent peptide is cleaved by MMPs to provide Mca-Pro-Leu-Gly, which is intensely fluorescent at an excitation at 340 nm and emission at 405 nm. While the enzymes pro-MMP-2 250 pm and MMP-9 (recombinant catalytic sequence) 500 pm in assay buffer. The assay buffer consists of Tris HCl 0.1 m, pH 7.5, NaCl 0.1 m, CaCl2 10 mm, 0.05% v/v BRIJ35, APMA (p-aminophenylmercuric acetate) 1 mm. This was carried out in 96-well plate, a solution of […] at the appropriate concentration and […] was incubated together at 25 °C for 30 min, and […] of substrate solution was added and the plate was further incubated 3 h at 37 °C. The incubation solutions were quenched with acetic acid ([…] soln.) and their fluorescence was recorded with the help of a plate reader spectrometer. The inhibitory activities were calculated against a control and IC50 curves, derived from 6 different inhibitor concentrations, extrapolated by means of statistical analysis program graphpad prism (v. 4.0; San Diego, CA, USA). Each inhibitor concentration was used in triplicate and the experiments run twice.
72 kDa type IV collagenase, sequence (P33436 whole entry): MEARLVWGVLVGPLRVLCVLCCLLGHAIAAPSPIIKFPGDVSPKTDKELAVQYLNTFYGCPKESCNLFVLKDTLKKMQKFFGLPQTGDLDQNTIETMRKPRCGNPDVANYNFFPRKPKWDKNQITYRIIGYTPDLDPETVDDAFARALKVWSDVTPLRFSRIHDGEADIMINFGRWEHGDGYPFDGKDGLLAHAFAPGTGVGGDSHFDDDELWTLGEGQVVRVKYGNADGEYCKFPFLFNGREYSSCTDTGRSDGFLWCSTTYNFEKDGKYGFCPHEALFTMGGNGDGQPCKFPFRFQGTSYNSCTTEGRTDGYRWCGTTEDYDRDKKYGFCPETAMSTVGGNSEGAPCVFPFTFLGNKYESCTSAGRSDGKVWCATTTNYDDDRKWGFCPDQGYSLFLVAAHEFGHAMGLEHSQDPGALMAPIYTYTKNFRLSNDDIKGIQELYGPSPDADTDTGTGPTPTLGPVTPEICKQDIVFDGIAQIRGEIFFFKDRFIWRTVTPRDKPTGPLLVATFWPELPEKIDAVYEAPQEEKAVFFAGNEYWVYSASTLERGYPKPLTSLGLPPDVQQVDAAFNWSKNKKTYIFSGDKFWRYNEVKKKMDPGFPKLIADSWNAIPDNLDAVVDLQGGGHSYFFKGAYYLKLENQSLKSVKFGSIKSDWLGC

The target in experiment [2] is Matrix metalloproteinase-9 (Rattus norvegicus, UniProt P50282). Briefly: enzyme-based fluorimetric assay. The conditions noted are these: pH 7.5; 25 °C.
Matrix metalloproteinase-9, sequence (P50282 whole entry): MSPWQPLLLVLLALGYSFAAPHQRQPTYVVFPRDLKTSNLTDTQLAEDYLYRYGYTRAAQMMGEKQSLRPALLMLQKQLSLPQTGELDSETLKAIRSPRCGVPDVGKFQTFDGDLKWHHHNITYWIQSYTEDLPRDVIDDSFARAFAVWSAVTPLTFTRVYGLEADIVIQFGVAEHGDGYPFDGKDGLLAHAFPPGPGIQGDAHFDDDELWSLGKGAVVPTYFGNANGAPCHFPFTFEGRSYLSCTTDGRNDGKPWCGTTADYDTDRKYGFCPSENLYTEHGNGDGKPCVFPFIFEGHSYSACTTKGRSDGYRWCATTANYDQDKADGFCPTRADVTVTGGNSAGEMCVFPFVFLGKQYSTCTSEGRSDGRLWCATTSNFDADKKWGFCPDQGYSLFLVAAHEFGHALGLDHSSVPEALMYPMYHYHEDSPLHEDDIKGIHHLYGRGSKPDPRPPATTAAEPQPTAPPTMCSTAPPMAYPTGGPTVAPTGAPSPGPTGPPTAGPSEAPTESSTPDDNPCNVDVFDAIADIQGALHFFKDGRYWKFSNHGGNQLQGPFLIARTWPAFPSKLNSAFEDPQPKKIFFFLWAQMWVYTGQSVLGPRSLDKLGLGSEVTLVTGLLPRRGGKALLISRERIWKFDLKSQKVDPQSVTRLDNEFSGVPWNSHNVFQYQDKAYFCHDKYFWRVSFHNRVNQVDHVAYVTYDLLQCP
Text: as §1

Consider `COc1ccc(-c2cc(-c3ccc(NS(=O)(=O)c4ccc(C)cc4)cc3)nn2-c2nc(NCCCN)nc(NCCCN)n2)cc1` [N-(4-(1-(4,6-bis((3-aminopropyl)amino)-1,3,5-triazin-2-yl)-5-(4-methoxyphenyl)-1H-pyrazol-3-yl)phenyl)-4-methylbenzenesulphonamide (8c)], for which the IC50 is 189 nM in experiment [1] and 156 nM in experiment [2].
In the same order, the values of `COc1ccc(-c2cc(-c3ccc(NS(=O)(=O)c4ccc(C)cc4)cc3)nn2-c2nc(Nc3ccc(O)cc3)nc(Nc3ccc(O)cc3)n2)cc1` [N-(4-(1-(4,6-bis((4-hydroxyphenyl)amino)-1,3,5-triazin-2-yl)-5-(4-methoxyphenyl)-1H-pyrazol-3-yl)phenyl)-4-methylbenzenesulphonamide (8e)] are 8.12 nM and 2.34 nM.
Taken in the same sequence, the figures for `COc1ccc(Nc2nc(Nc3ccc(OC)cc3)nc(-n3nc(-c4ccc(NS(=O)(=O)c5ccc(C)cc5)cc4)cc3-c3ccc(OC)cc3)n2)cc1` [N-(4-(1-(4,6-bis((4-methoxyphenyl)amino)-1,3,5-triazin-2-yl)-5-(4-methoxyphenyl)-1H-pyrazol-3-yl)phenyl)-4-methylbenzenesulphonamide (8f)] were 18.6 nM and 10.2 nM.
Taken in the same sequence, the figures for `COc1ccc(-c2cc(-c3ccc(NS(=O)(=O)c4ccc(C)cc4)cc3)nn2-c2nc(Nc3ccc([N+](=O)[O-])cc3)nc(Nc3ccc([N+](=O)[O-])cc3)n2)cc1` [N-(4-(1-(4,6-bis((4-nitrophenyl)amino)-1,3,5-triazin-2-yl)-5-(4-methoxyphenyl)-1H-pyrazol-3-yl)phenyl)-4-methylbenzenesulphonamide (8h)] were 76.6 nM and 68.5 nM.
On to `CCNc1nc(NCC)nc(-n2nc(-c3ccc(NS(=O)(=O)c4ccc(C)cc4)cc3)cc2-c2ccc(OC)cc2)n1` [N-(4-(1-(4,6-bis(ethylamino)-1,3,5-triazin-2-yl)-5-(4-methoxyphenyl)-1H-pyrazol-3-yl)phenyl)-4-methylbenzenesulphonamide (8b)], for which the IC50 in experiment [1] is 332 nM; in experiment [2], 302 nM.
For the compound `CNc1nc(NC)nc(-n2nc(-c3ccc(NS(=O)(=O)c4ccc(C)cc4)cc3)cc2-c2ccc(OC)cc2)n1` [N-(4-(1-(4,6-bis(methylamino)-1,3,5-triazin-2-yl)-5-(4-methoxyphenyl)-1H-pyrazol-3-yl)phenyl)-4-methylbenzenesulphonamide (8a)], the IC50 was 666 nM in experiment [1] and 625 nM in experiment [2].
Turning to `COc1ccc(-c2cc(-c3ccc(NS(=O)(=O)c4ccc(C)cc4)cc3)nn2-c2nc(Nc3ccccc3C)nc(Nc3ccccc3C)n2)cc1` [N-(4-(1-(4,6-bis(o-tolylamino)-1,3,5-triazin-2-yl)-5-(4-methoxyphenyl)-1H-pyrazol-3-yl)phenyl)-4-methylbenzenesulphonamide (8g)], the IC50 was determined as 67.1 nM in experiment [1] and 58.2 nM in experiment [2].
Taken in the same sequence, the figures for `COc1ccc(-c2cc(-c3ccc(NS(=O)(=O)c4ccc(C)cc4)cc3)nn2-c2nc(Nc3ccccc3)nc(Nc3ccccc3)n2)cc1` [N-(4-(1-(4,6-bis(phenylamino)-1,3,5-triazin-2-yl)-5-(4-methoxyphenyl)-1H-pyrazol-3-yl)phenyl)-4-methylbenzenesulphonamide (8d)] were 123 nM and 105 nM.
For `COc1ccc(-c2cc(-c3ccc(NS(=O)(=O)c4ccc(C)cc4)cc3)nn2-c2nc(N3CCNCC3)nc(N3CCNCC3)n2)cc1` [N-(4-(1-(4,6-di(piperazin-1-yl)-1,3,5-triazin-2-yl)-5-(4-methoxyphenyl)-1H-pyrazol-3-yl)phenyl)-4-methylbenzenesulphonamide (8i)], the figures for the IC50 in experiment [1] and in experiment [2] were 55.3 nM and 47.1 nM, respectively.
Consider `COc1ccc(-c2cc(-c3ccc(NS(=O)(=O)c4ccc(C)cc4)cc3)nn2-c2nc(N3CCOCC3)nc(N3CCOCC3)n2)cc1` [N-(4-(1-(4,6-dimorpholino-1,3,5-triazin-2-yl)-5-(4-methoxyphenyl)-1H-pyrazol-3-yl)phenyl)-4-methylbenzenesulphonamide (8j)], for which the IC50 in experiment [1] was 42.3 nM; in experiment [2] it was 31.2 nM.

By IC50 is commonly meant the concentration that inhibits the measured activity by half.
